{"source": "patent US11427596B2", "about": "“Metal-free solvent-free synthesis of fused-pyrido heterocycles and biomedical applications” (Indian Institute of Technology Indore, priority 2019, dated 2022)", "system": "Mycobacterium bovis", "format": "cell-based", "conditions": "virulent/opportunistic multidrug resistant Mycobacterium bovis (BCG), incubation 48 hrs, n=3", "data": [{"compound": "Cc1ccc(-c2nc(COCc3cn(CCN4C(=O)C(=O)c5ccccc54)nn3)cc3oc(C)cc23)o1", "note": "[compound 26, 1-(2-(4-(((2-Methyl-4-(5-methylfuran-2-yl)furo[3,2-c]pyridin-6-yl)methoxy)methyl)-1H-1,2,3-triazol-1-yl)ethyl)indoline-2,3-dione]", "values": [{"measurement": "concentration range in which active (antituberculosis activity)", "result": "70 to 100", "unit": "µM"}]}]}
